Legend:
[1] = tested on: Candida albicans designated CA-1, Strain SLU-1; assay type: cell-based; settings: C. albicans SLU1; 24 hours at 37° C.; OD 595 nm below 0.1
Procedure: In each broth microdilution assay screening procedure, a colony of Candida albicans designated CA-1, Strain SLU-1 that was received from the laboratories of G. Matuschak and A. Lechner, St. Louis University Hospital, St. Louis, Mo., where the strain was maintained, was inoculated into a tube containing 5 mL Sabouraud Dextrose broth (2% dextrose, 1% neopeptone) and incubated at 37° C. with shaking. The overnight culture was diluted 1:50 into 5 ml of fresh broth and incubated for 3 hours at 37° C. to exponential phase growth. Organisms were pelleted by centrifugation in a Beckman J-6M centrifuge for 5 minutes at 3000 rpm (1500×g) and the pellets were resuspended in 5 mL phosphate buffered saline (PBS) and the optical density (OD) at 570 nm was determined. On the basis of the determination that one OD unit equals 3×10^7 colony forming units/mL (CFU/mL), yeast cells were diluted to 5×10^3 CFU/mL in Sabouraud Dextrose broth (SBD).
Derivatized peptide sequences based on Domain III of BPI to be screened which were originally constituted in Dulbecco's-PBS, were two-fold serially diluted in SDB starting from a concentration of 128 μg/mL. Equal volumes (100 μL) of yeast suspension as prepared above and derivatized peptide solution were added to wells of a 96-well sterile, flat bottom, non-pyrogenic tissue culture microtiter plate (Costar, Cambridge, Mass.) to reach a final volume of 200 μL/well. The plate was incubated on a shaker at 37° C. for 24 hours. All assays were performed in triplicate. Following the incubation period, plates were read in an ELISA plate reader at 595 nm wavelength to determine the minimum inhibitory concentration (MIC), i.e., the lowest concentration required to reduce the optical density at 595 nm to below 0.1 OD.

Candida albicans SLU-1 = assay: Radial diffusion assay; assay type: cell-based; settings: 30 mm^2 area of growth inhibition, calculated by PROBIT analysis
Procedure: In the radial diffusion assay procedures, the CA-1 cultures and derivatized peptide solutions were prepared as in the broth microdilution assay procedure described above, i.e., CA-1 was grown to exponential phase in SDB. Ten (10) mL of molten underlayer agarose comprising 3% Sabouraud Dextrose broth, 1% agarose (Pharmacia, Piscataway, N.J.), 0.02% Tween 20, and 10 mM sodium phosphate at pH 7.4, was added to polystyrene tubes and maintained in a 56° C. water bath until the addition of yeast. Tubes were cooled to approximately 45° C., yeast were added to give a final concentration of 1×10^6 CFU/mL, and the tubes were mixed again by inverting. The contents were poured into leveled, square petri dishes and distributed evenly. […] A series of wells were punched into the hardened agarose using a sterile 3 mm punch attached to a vacuum apparatus to achieve a uniform, 3 mm diameter well.
Derivatized peptide sequences to be assayed were 2-fold serially diluted in 10 mM Dulbecco's PBS (D-PBS) starting from a concentration of approximately […]. Five μL of each dilution were added to each well and the plates were incubated at 37° C. for 3 hours to allow for complete diffusion of the test compounds. An overlayer of 10 mL of molten agarose comprising 6% Sabouraud Dextrose broth, 1% agarose, and 10 mM sodium phosphate, pH 7.4, (at approximately 45° C.) was then added and plates were incubated overnight at 37° C. Following this overnight incubation, a dilute Coomassie solution was poured into the plates and allowed to stain for 24 hours to enhance visualization of the zones.
Clear zones of growth inhibition around each well were measured with calipers. The actual area of growth inhibition (mm^2) was calculated by subtracting the area of the well. Table II below sets out the results of the radial diffusion assays for a series of tested peptide-based constructs in terms of the number of picomoles (pmol) of compound required to establish a 30 mm^2 area of growth inhibition of Candida albicans SLU-1 calculated by PROBIT analysis (e.g., calculated from regression of the linear portion of log-concentration dose-response curve, log pmol/well vs. net area of inhibition).

**Q.** `CC[C@@H](C)[C@@H](NC(=O)[C@@H](CC(C)C)NC(=O)[C@@H](Cc1c[nH]c2ccccc12)NC(=O)[C@@H](CCCCN)NC(=O)c1ccccc1O)C(=O)N[C@H](CCC(N)=O)C(=O)N[C@H](CC(C)C)C(=O)N[C@H](Cc1ccccc1)C(=O)N[C@H](Cc1c[nH]cn1)C(=O)N[C@H](CCCCN)C(=O)N[C@H](CCCCN)C(N)=O` [XMP.560] was tested. Which “Broth Microdilution (MIC values in μg/mL C. albicans SLU1)” value [1] did it give?
**A.** 2 µg/mL

**Q.** What about the “Radial Diffusion (pmol to achieve 30 mm^2 zone C. albicans SLU1)” value (Candida albicans SLU-1) of the same molecule?
**A.** 451 pmol
